According to patent publication US5674878A, “Anellated dihydropyridines and the use thereof for the production of pharmaceutical preparations” (Boehringer Ingelheim KG, priority 1992, dated 1997):
pIC50: −log10 of the molar value.

Key:
[1] = test system: unselective cation channels (UCC); test: Thapsigargin (0.1 μM) stimulated Ca^2+ entry through unselective cation channels in fura-2-charged RBL-hm 1 cells; format: cell-based, rat
[2] = test system: unselective cation channels (UCC); test: as above; format: cell-based, rat; conditions: for % Inhibition: RBL-hm 1 cells, Thapsigargin (0.1 μM) stimulation, 10 μM test substance (Table 21)
Source text: As a measurement of the cell activation or as a measurement of the inhibition thereof by UCC blockers, the kinetics of the cytoplasmic calcium ion concentration in fura-2-charged cells is quantified fluorometrically using the method described by GRYNKIEWICZ et al. (1985).
Consequently the Ca^2+ -stores are rapidly depleted. As described by J. PUTNEY (Calcium, 11, 611-624, 1990) the depletion of these stores constitutes the physiological stimulation for opening up unselective cation channels in the cell membrane. The result of this is a massive influx of Na^+ and Ca^2+ into the cell. Because of these properties, Thapsigargin is suitable as an indirect stimulator for agonist- and IP3-independent opening up of the unselective cation channels.
The functional endothelin antagonism of the substances according to the invention is mediated through a blockade of the unselective cation channels. Consequently, detection of a functional Thapsigargin-antagonism on RBL-hm1 cells is also a suitable screening method for functional endothelin antagonists.
For screening purposes, fura-2-charged adhesive RBL-hm 1 cells are stimulated with 0.1 μM Thapsigargin in a Ca^2+ -free incubation medium. After 4 minutes, extracellular Ca^2+ is restored to a concentration of 1.5 mM and, using the fura-2-fluorescence, the excessive increase in the cytoplasmic Ca^2+ -concentration caused by a massive transmembranal Ca^2+ -entry through unselective cation channels is recorded.
This entry is to be inhibited solely by unselective cation channel blockers in a dosage-dependent manner. Neither conventional calcium antagonists nor specific blockers of agonists which stimulate the IP3 -turnover are able to inhibit the transmembranal Ca^2+ -entry triggered indirectly by Thapsigargin. The compounds of the present invention are distinguished by their inhibition of UCC.
The fluorometric calcium measurement in the cytoplasm of individual adhering RBL-hm1 cells is carried out analogously to the method described by KUDO and OGURA (1986) for neuronal cells. An AXIOVERT 35 fluorescence microscope made by ZEISS is used in conjunction with an imaging system made by HAMAMATSU, consisting of the ICMS-image processing system, residual light camera with control unit and image intensifier DVS 3000.
The kinetics of the cytoplasmic Ca^2+ -concentration is recorded continuously as a concentration/time curve after the cell activation stimulated by Thapsigargin (0.1 μM). The curves of two activated cell cultures are compared in the presence and absence of 10 μM test substance. The area under these curves (area under the curve=AUC) is integrated and recorded as a measurement of cell activation. The inhibitory potency of the UCC-blockers tested is determined using the following equation: [formula] %H=the percentage inhibition of the calcium entry through unselective cation channels which is stimulated and inhibited by 10 μM of test substance.
AUCinh =area under the curve recorded in the presence of the stimulant plus 10 μM inhibitory test substance.
AUCcontrol =area under the curve which is recorded only after the addition of the stimulant.
The percentage inhibition of UCC after Thapsigargin stimulation (0.1 μM Thapsigargin) in RBL-hm 1 cells is given. The uniform concentration of the test substances is 10^-5 mol).

[3] = test system: Ca^2+-ATPase of intracellular IP3-sensitive Ca^2+-stores; conditions: in words; cited from earlier work
RBL-2H3-cells = test: DNP-BSA antigen-induced activation of sensitised RBL-2H3 cells; format: cell-based; conditions: Rattus norvegicus, read-out: inhibition of the antigen-induced cell activation
Procedure: Individual RBL-2H3-cells (a tumour cell line related to the mast cells) adhering to glass slides are used.
The cultivation and attachment of the RBL-2H3-cells are carried out by the method described by HIDE and BEAVEN (1991). In order to sensitise the adhesive RBL-2H3-cells the cells are incubated for 2 hours at ambient temperature with a 1:2000 diluted commercial gammaglobulin E-solution against a dinitrophenol-bovine serum albumin complex (DNP-BSA-antigen). The cells are then washed. By the addition of 0.1 ml of DNP-BSA-solution (10 μg/ml) there is a massive immunological cell activation which is mediated by a cytoplasmic Ca^2+ -overload. The fluorometric calcium measurement in the cytoplasm of individual adhering RBL-2H3-cells is carried out analogously to the method described by KUDO and OGURA (1986) for neuronal cells, which is also explained hereinbefore in this specification.

SMILES	% Inhibition [2]	other results
COc1cc2c(cc1OC)C(C(C(=O)NCCC(C)(C)C)c1ccccc1)=NCC2 (stereo not shown)	–	pIC50 ([1]; Table 17): 5.12; percent inhibition of Ca2+ entry ([2]; Table 17, 10 μM test substance): 80.97%
COc1cc2c(cc1O)CCN=C2C(C(=O)N(CCc1ccc(OC)c(OC)c1OC)CCc1ccc(OC)c(OC)c1OC)c1ccccc1 (stereo not shown)	–	pIC50 ([1]; Table 20): 5.46; percent inhibition of Ca2+ entry ([2]; Table 20, 10 μM test substance): 86.70%
COc1cc2c(cc1OC)C(=C(C(=O)NC(Cc1ccccc1)c1ccccc1)c1ccccc1)NCC2 (stereo not shown) [Q]	64.28%	–
C/C=C(/C)C(=O)O[C@H]1C(C)=C2[C@H]([C@@H]1OC(=O)CCCCCCC)[C@@](C)(OC(C)=O)C[C@H](OC(=O)CCC)[C@@]1(O)[C@H]2OC(=O)[C@@]1(C)O [THAPSIGARGIN]	–	inhibition of Ca^2+-ATPase [3]: selectively and irreversibly inhibits
O=C(O)c1cc(=O)c2c(OCC(O)COc3cccc4oc(C(=O)O)cc(=O)c34)cccc2o1 [chromoglycate]	–	inhibition at 10 µM (RBL-2H3-cells): ~50%
COCCNC(=O)C(=C1NCCc2cc(OC)c(OC)cc21)c1ccccc1 [compound 17]	52.53%	–
COCCCNC(=O)C(=C1NCCc2cc(OC)c(OC)cc21)c1ccccc1 [compound 18]	57.53%	–
COc1cc2c(cc1OC)C(=C(C(=O)NCCCN(C)C)c1ccccc1)NCC2 [compound 20]	57.38%	–
COc1cc2c(cc1OC)C(C(C(=O)Nc1cccnc1)c1ccccc1)=NCC2 (stereo not shown) [compound 33]	60.55%	–
COc1cc2c(cc1OC)C(C(C(=O)N(C)C)c1ccccc1)=NCC2 (stereo not shown) [compound 36]	52.19%	–
CCN(CC)C(=O)C(C1=NCCc2cc(OC)c(OC)cc21)c1ccccc1 (stereo not shown) [compound 37]	75.77%	–
COc1cc2c(cc1OC)C(C(C(=O)N1CCOCC1)c1ccccc1)=NCC2 (stereo not shown) [compound 39]	48.62%	–
COc1cc2c(cc1OC)C(C(C(=O)N1CCSCC1)c1ccccc1)=NCC2 (stereo not shown) [compound 40]	64.99%	–
COc1cc2c(cc1OC)C(=C(C(=O)N1CCN(Cc3ccccc3)CC1)c1ccccc1)NCC2 [compound 42]	84.83%	–
COc1cc2c(cc1OC)C(C(C(=O)N1CCN(C)CC1)c1ccccc1)=NCC2 (stereo not shown) [compound 43]	48.69%	–
O=C(NCCc1ccc2c(c1)OCO2)C(=C1NCCc2cc3c(cc21)OCO3)c1ccccc1 [compound 46]	68.06%	–

SMILES	% Inhibition [2]	other results
O=C(NCCN1CCOCC1)C(=C1NCCc2cc3c(cc21)OCO3)c1ccccc1 [compound 48]	61.34%	–
COc1ccc(CCNC(=O)C(=C2NCCc3c2[nH]c2ccccc32)c2ccccc2)cc1OC [compound 83]	66.76%	–
O=C(NCCN1CCOCC1)C(=C1NCCc2c1[nH]c1ccccc21)c1ccccc1 [compound 89]	53.38%	–
COc1cc2c(cc1OC)C(C(C(=O)NCCC(c1ccccc1)c1ccccc1)c1ccccc1)=NCC2 (stereo not shown) [compound 101]	59.62%	–
COc1cc2c(cc1OC)C(C(C(=O)NCCc1ccccc1C)c1ccccc1)=NCC2 (stereo not shown) [compound 102]	80.77%	–
COc1cc(CCNC(=O)C(C2=NCCc3cc(OC)c(OC)cc32)c2ccccc2)cc(OC)c1 (stereo not shown) [compound 104]	54.67%	–
COc1cccc(CCNC(=O)C(C2=NCCc3cc(OC)c(OC)cc32)c2ccccc2)c1 (stereo not shown) [compound 105]	45.09%	–
COc1cc2c(cc1OC)C(C(C(=O)NCc1cc(C)ccc1C)c1ccccc1)=NCC2 (stereo not shown) [compound 106]	65.69%	–
COc1cc2c(cc1OC)C(C(C(=O)NCCCc1ccc(OC)c(OC)c1OC)c1ccccc1)=NCC2 (stereo not shown) [compound 108]	44.45%	–
COc1cc2c(cc1OC)C(=C(C(=O)NCCc1ccc(OC)c(C)c1C)c1ccccc1)NCC2 [compound 109]	74.18%	–
CCOc1ccccc1CCCNC(=O)C(C1=NCCc2cc(OC)c(OC)cc21)c1ccccc1 (stereo not shown) [compound 115]	75.53%	–
COc1cc2c(cc1OC)C(=C(C(=O)NCC13CC4CC(CC(C4)C1)C3)c1ccccc1)NCC2 [compound 132]	65.14%	–
COc1cc(N=[N+]=[N-])ccc1CCNC(=O)C(C1=NCCc2cc(OC)c(OC)cc21)c1ccccc1 (stereo not shown) [compound 133]	68.15%	–
O=C(NCCc1cccc(C(F)(F)F)c1)C(C1=NCCc2cc(OCc3ccccc3)c(Cl)cc21)c1ccccc1 (stereo not shown) [drawing 223]	–	% ([2]; Table 16, %inhibition, 10 μM test substance): 32.90%
COc1cc(N=[N+]=[N-])ccc1CCNC(=O)C(C1=NCCc2cc(OC)c(OC)cc21)c1ccccc1 (stereo not shown) [drawing 231]	–	percent inhibition of Ca2+ entry ([2]; Table 17, 10 μM test substance): 68.2%
O=C(NCCc1cccc(C(F)(F)F)c1)C(C1=NCCc2cc(OCc3ccccc3)c(Cl)cc21)c1ccccc1 (stereo not shown) [drawing 274]	–	percent inhibition of Ca2+ entry ([2]; Table 20, 10 μM test substance): 32.9%
